Experimental data taken from patent US20230416196A1, “DIMER OF BIGUANIDINES AND THEIR THERAPEUTIC USES” (INSTITUT CURIE, priority 2020, published 2023).
pIC50: −log10 of the molar value. Where a name gives a salt, the structure may show the parent alone.

test system: activated macrophages (act. MDM), CD86 activation marker; experiment: CD86 macrophage activation marker by flow cytometry in LPS/IFNγ-activated monocyte-derived macrophages (Example 4); type: cell-based, human; conditions: LCCs at 10 μM, 24 h co-treatment; several values per compound
Procedure: Cell culture. U-937 cells were grown in an incubator equilibrated at 37° C. with 5% CO2, grown to confluence and split with Trypsin/EDTA (Gibco, […]01) once or twice a week according to confluence. U-937 (ATCC, HTB-132) were cultured in RPMI 1640 GLUTAMAX (ThermoFisher Scientific, 61870044) supplemented with 10% Fetal Bovine Serum (FBS, Gibco, 10270-106) and Penicillin-Streptomycin mixture (BioWhittaker/Lonza, DE17-602E). […] Peripheral blood samples were collected from distinct healthy donors (Etablissement Français du Sang). Pan monocytes were isolated by negative magnetic sorting using microbeads according to the manufacturer's instructions (Miltenyi Biotec, 130-096-537), and cultured in RPMI 1640 supplemented with glutamine (Thermo Fisher Scientific, 61870010), 10% fetal bovine serum and exposed to granulocyte-macrophage colony-stimulating factor (GM-CSF, Miltenyi Biotec, 130-093-866, 100 ng/mL) to induce differentiation into macrophages (MDM). […] Flow cytometry. Cells were washed with ice-cold 1×PBS, incubated with Fc block (Human TruStain FcX, Biolegend, 422302, 1/20) for 15 min, incubated with antibodies for 20 min at 4° C. and washed before analysis using a BD LSRFortessa X-20. Macrophages were analyzed with an antibody panel consisting of antibodies against the following cell surface proteins: CD44, CD80, CD86 and TfR1. The data were analyzed with FlowJo software v. 10.0.00003. […]

Row | SMILES | Effect on CD86 macrophage activation marker (Flow cytometry) (% of activation marker compared to its level in activated macrophages) [%]
1 | CCCNC(=N)NC(=N)NCCCCCCCCCCNC(=N)NC(=N)NCCC [LCC-10,3] | 22
2 | CN(CCCCCCCCN(C)C(=N)NC(=N)N)C(=N)NC(=N)N [LCC-8Me] | 89

test system: HMLER CD44^high/CD24^low; experiment: Cell viability assay (CellTiter-Blue) on breast cancer stem cell model HMLER CD44high/CD24low; type: cell-based, human; conditions: HMLER CD44high/CD24low
Procedure: Cell viability assay (IC50). Cell viability assay was carried out by plating 1000 cells/well in 96-well plates. Cells were treated for 72 h in a range between to 25 nM and […] using serial dilutions. The inventors followed the manufacturer's protocol. In brief, CellTiter-Blue® reagent (G8081, Promega) was added after 72 h treatment and cells were incubated for 3 h before recording fluorescence intensities (λex. 560/20 nm; λem. 590/10 nm) using a Perkin Elmer Wallac 1420 Victor2 Microplate Reader.
Cell culture. MCF7 (ATCC) cells, DU-145 (ATCC) cells and FC1245 cells were cultured in Dulbecco's Modified Eagle Medium GlutaMAX (DMEM, ThermoFisher Scientific, 61965059) supplemented with 10% Fetal Bovine Serum (FBS, Gibco, 10270-106) and Penicillin-Streptomycin mixture (BioWhittaker/Lonza, DE17-602E) unless stated otherwise. Primary lung circulating tumor cells (Celprogen, 36107-34CTC, Lot 219411) were grown using stem cell complete media (Celprogen, M36102-29PS) until the third passage. Circulating cancer cells were grown in stem cell ECM T75-flasks (Celprogen, E36102-29-T75) and ECM 6-well plates (Celprogen, E36102-29-6Well). HMLER cells ([…]) naturally repressing E-cadherin, obtained from human mammary epithelial cells infected with a retrovirus carrying hTERT, SV40 and the oncogenic allele H-rasV12, and HMLER CD44 and TFRC ko clones were cultured in DMEM/F12 (Thermo Fisher Scientific, 31331093) supplemented with 10% FBS (Thermo Fisher Scientific, 10270106), 10 μg/mL insulin (Sigma-Aldrich, 10516), 0.5 μg/mL hydrocortisone (Sigma-Aldrich, H0888) and 0.5 μg/mL puromycin (Life Technologies, A11138-02), unless stated otherwise. HMLER CD44^high cells were also supplemented with 10 ng/mL EGF (Miltenyi Biotech, 130-097-750).

Row | SMILES | improved IC50 compared with metformin
3 | N=C(N)NC(=N)NCCCCCCCCCCNC(=N)NC(=N)N [LCC-10] | about 400 fold

same assay, conditions: Homo sapiens; cell viability, 72 h treatment; read-out: IC50 against HMLER CD44^high/CD24^low

Row | SMILES | pIC50
4 | CN(C)C(=N)NC(=N)N [Metformin, 1,1-dimethylbiguanid hydrochloride, reference compound] | 1.65
5 | N=C(N)NC(=N)NCCCCCCCCCCNC(=N)NC(=N)N [LCC-10] | 4.24

test system: macrophage activation; experiment: Macrophage activation, copper(I)-targeting agents; type: cell-based; conditions: not given

Row | SMILES | efficacy on macrophage activation
6 | [NH4+].[NH4+].[SH-].[SH-].[S]=[Mo]=[S] [ATTM] | lack of efficacy
7 | CC(C)(S)[C@@H](N)C(=O)O [D-Pen] | lack of efficacy

test system: U937 cells; experiment: Cell viability assay (CellTiter-Blue) on lymphoma cell line U937; type: cell-based; conditions: Homo sapiens, U-937, 72 h treatment
Procedure: Cell culture. U-937 cells were grown in an incubator equilibrated at 37° C. with 5% CO2, grown to confluence and split with Trypsin/EDTA (Gibco, […]01) once or twice a week according to confluence. U-937 (ATCC, HTB-132) were cultured in RPMI 1640 GLUTAMAX (ThermoFisher Scientific, 61870044) supplemented with 10% Fetal Bovine Serum (FBS, Gibco, 10270-106) and Penicillin-Streptomycin mixture (BioWhittaker/Lonza, DE17-602E). […] Peripheral blood samples were collected from distinct healthy donors (Etablissement Français du Sang). Pan monocytes were isolated by negative magnetic sorting using microbeads according to the manufacturer's instructions (Miltenyi Biotec, 130-096-537), and cultured in RPMI 1640 supplemented with glutamine (Thermo Fisher Scientific, 61870010), 10% fetal bovine serum and exposed to granulocyte-macrophage colony-stimulating factor (GM-CSF, Miltenyi Biotec, 130-093-866, 100 ng/mL) to induce differentiation into macrophages (MDM). […] Cell viability assay (IC50). Cell viability assay was carried out by plating 1000 cells/well in 96-well plates. Cells were treated for 72 h in a range between to 25 nM and […] using serial dilutions. The inventors followed the manufacturer's protocol. In brief, CellTiter-Blue® reagent (G8081, Promega) was added after 72 h treatment and cells were incubated for 3 h before recording fluorescence intensities (λex. 560/20 nm; λem. 590/10 nm) using a Perkin Elmer Wallac 1420 Victor2 Microplate Reader.

Row | SMILES | IC50 [µM]
8 | N=C1NCCCCCCCCNC(=N)NC(=N)NCCCCCCCCNC(=N)N1 [Coronaformin-8,8] | 3
9 | CCNC(=N)NC(=N)NCCCCCCCCCCNC(=N)NC(=N)NCC [LCC-10,2] | 1
10 | CN(CCCCCCCCCCCCN(C)C(=N)NC(=N)N)C(=N)NC(=N)N [LCC-12Me] | 6
11 | CCCNC(=N)NC(=N)NCCCCCCCCNC(=N)NC(=N)NCCC [LCC-8,3] | 2
12 | N=C1NCCCCCCCCCCNC(=N)NC(=N)NCCCCCCCCCCNC(=N)N1 [Coronaformin-10,10] | 1
13 | CN(C)C(=N)NC(=N)N [Metformin, 1,1-dimethylbiguanid hydrochloride, reference compound] | 10000
14 | N=C(N)NC(=N)NCCCCCCCCCCNC(=N)NC(=N)N [LCC-10] | 20
15 | CCCNC(=N)NC(=N)NCCCCCCCCCCNC(=N)NC(=N)NCCC [LCC-10,3] | 0.6
16 | CN(CCCCCCCCN(C)C(=N)NC(=N)N)C(=N)NC(=N)N [LCC-8Me] | 150
17 | N=C1NCCCCCCCCCCCCNC(=N)NC(=N)NCCCCCCCCCCCCNC(=N)N1 [Coronaformin-12,12] | 0.5
